In the case of `O=C(O)c1cccc(COc2nc(Cl)cnc2NS(=O)(=O)c2cccc(Cl)c2Cl)c1` [Example 105, 3-[6-Chloro-3-(2,3-dichlorobenzenesulphonylamino)-2-pyrazinyloxymethyl]benzoic acid], the melting point (as a rule, the temperature, or range, at which the solid turns liquid) is 218 to 224 °C (dec.).

`COc1nc(Cl)cnc1NS(=O)(=O)c1cccc(Cl)c1` [Example 52, 3-Chloro-N-(5-chloro-3-methoxy-2-pyrazinyl)benzenesulphonamide] displayed a melting point of 129 to 130 °C. The same measure for `COc1nc(SCc2ccc(F)cc2)cnc1NS(=O)(=O)c1cccc(Cl)c1Cl` [Example 170, 2,3-Dichloro-N-[5-(4-fluorobenzylsulphanyl)-3-methoxy-2-pyrazinyl]benzenesulphonamide]: 119 to 120 °C; for `COc1nc(Cn2cncn2)cnc1NS(=O)(=O)c1cccc(Cl)c1Cl` [Example 195, 2,3-Dichloro-N-[3-methoxy-5-(1H-1,2,4-triazol-1-ylmethyl)-2-pyrazinyl]benzenesulphonamide]: 95 to 105 °C.

The molecule `COC(=O)c1nc(OC)c(NS(=O)(=O)c2cccc(Cl)c2Cl)nc1Cl` [Example 126, 3-Chloro-5-{[(2,3-dichlorophenyl)sulphonyl]amino}-6-methoxypyrazine-2-carboxylic acid, methyl ester] showed a melting point of 200 to 201 °C.

Turning to `COc1nc(C)cnc1NS(=O)(=O)c1ccc(Cl)cc1Cl` [Example 47, 2,4-Dichloro-N-(3-methoxy-5-methyl-2-pyrazinyl)benezenesulphonamide], the melting point is 135 to 136 °C. As for `CNC(=O)CSc1cnc(NS(=O)(=O)c2cccc(Cl)c2Cl)c(OC)n1` [Example 168, 2-[5-(2,3-Dichlorobenzenesulphonylamino)-6methoxy-2-pyrazinylsulphanyl]-N-methylacetamide], the figure is 150 to 152 °C; as for `COc1nc(Br)c(Cl)nc1NS(=O)(=O)c1cccc(Cl)c1Cl` [Example 125, N-(5-Bromo-6-chloro-3-methoxy-2-pyrazinyl)-2,3-dichlorobenzenesulphonamide], 177 to 178 °C. `O=S(=O)(Nc1ncc(Cl)nc1OCc1ccc(CNCCO)cc1)c1cccc(Cl)c1Cl` [Example 110, 2,3-Dichloro-N-[5-chloro-3-{4-([2-hydroxyethylamino]methyl)phenylmethoxy}-2-pyrazinyl]benzenesulphonamide] showed a melting point of 202 to 205 °C. As to `COc1nc(Cl)cnc1NS(=O)(=O)c1ccc(Cl)cc1` [Example 53, 4-Chloro-N-(5-chloro-3-methoxy-2-pyrazinyl)benzenesulphonamide], the melting point fell in the range of 179 to 180 °C. Regarding `Cc1ncccc1COc1nc(Cl)cnc1NS(=O)(=O)c1cccc(Cl)c1Cl` [Example 92, 2,3-Dichloro-N-[5-chloro-3-(2-methyl-3-pyridinylmethoxy)-2-pyrazinyl]benzenesulphonamide], the melting point is 214 to 216 °C (dec.). In the case of `C#CCOc1cnc(NS(=O)(=O)c2cccc(Cl)c2Cl)c(OC)n1` [Example 198, 2,3-Dichloro-N-[3-methoxy-5-(2-propyn-1-yloxy)-2-pyrazinyl]benzenesulphonamide], the melting point was 110 to 112 °C. `COc1cccc(S(=O)(=O)Nc2nccnc2OC)c1Cl` [Example 132, 2-Chloro-3-methoxy-N-(3-methoxy-2-pyrazinyl)benzenesulphonamide] came in with a melting point of 151 to 152 °C. For the molecule `CNc1nc(OC)c(NS(=O)(=O)c2cccc(Cl)c2Cl)nc1Cl` [Example 79, 2,3-Dichloro-N-(6-chloro-3-methoxy-5-methylamino-2-pyrazinyl)benzenesulphonamide], the melting point fell in the range of 185 to 186 °C. In turn, `O=S(=O)(Nc1ncc(Cl)nc1OCc1cccc(CNCCO)c1)c1cccc(Cl)c1Cl` [Example 108, 2,3-Dichloro-N-[5-chloro-3-{3-([2-hydroxyethylamino]methyl)phenylmethoxy}-2-pyrazinyl]benzenesulphonamide] displayed a melting point of 196 to 198 °C.

In turn, `COc1nc(OCc2cc(C)on2)cnc1NS(=O)(=O)c1cccc(Cl)c1Cl` [Example 174] registered a melting point of 142 to 143 °C. Consider `COc1ncc(Cl)nc1NS(=O)(=O)c1ccccc1Cl` [Example 38, 2-Chloro-N-(6-chloro-3-methoxy-2-pyrazinyl)benezenesulphonamide], for which the melting point lay in the range of 172 to 173 °C.

The molecule `C=CCOc1nc(Cl)cnc1NS(=O)(=O)c1cccc(Cl)c1Cl` [Example 187, N-(3-Allyloxy-5-chloro-2-pyrazinyl)-2,3-dichlorobenzenesulphonamide] returned a melting point of 145 to 146 °C. The same measure for `CCN(CC)C(=O)COc1cnc(NS(=O)(=O)c2cccc(Cl)c2Cl)c(OC)n1` [Example 204, 2-[5-(2,3-Dichlorobenzenesulphonylamino)-6-methoxy-2-pyrazinyloxy]-N,N-diethyl-acetamide]: 117 to 118 °C; for `O=S(=O)(Nc1nccnc1OCc1ccc(CO)cc1)c1cccc(Cl)c1Cl` [Example 111, 2,3-Dichloro-N-[3-(4-hydroxymethylphenylmethoxy)-2-pyrazinyl]benzenesulphonamide]: 160 to 161 °C; for `COc1nc(Cl)c(Cl)nc1NS(=O)(=O)c1ccc(Cl)cc1` [Example 62, 4-Chloro-N-(5,6-dichloro-3-methoxy-2-pyrazinyl)benzenesulphonamide]: 186 to 187 °C. Take `O=S(=O)(Nc1ncc(Br)nc1OCc1cncnc1)c1cccc(Cl)c1Cl` [Example 35, N-[5-Bromo-3-(5-pyrimidinylmethoxy)-2-pyrazinyl]-2,3-dichlorobenzenesulphonamide]: the melting point fell in the range of 208 to 209 °C. As for `COc1nc(OC)c(NS(=O)(=O)c2cccc(Cl)c2Cl)nc1Cl` [Example 66, 2,3-Dichloro-N-(6-chloro-3,5-dimethoxy-2-pyrazinyl)benzenesulphonamide], the figure is 163 to 165 °C; as for `CN(C)Cc1ccc(COc2ncc(Cl)nc2NS(=O)(=O)c2cccc(Cl)c2Cl)o1` [Example 180, 2,3-Dichloro-N-[6-chloro-3-(5-dimethylaminomethyl-2-furanylmethoxy)-2-pyrazinyl]benzenesulphonamide], 209 to 210 °C; as for `COc1nc(SCc2ncon2)cnc1NS(=O)(=O)c1cccc(Cl)c1Cl` [Example 172, 2,3-Dichloro-N-[3-methoxy-5-([1,2,4]-3-oxadiazolylmethylsulphanyl)-2-pyrazinyl]benzenesulphonamide], 154 to 156 °C. `COc1nc(CO)cnc1NS(=O)(=O)c1cccc(Cl)c1Cl` [Example 138] gave a melting point of 160 to 161 °C. Regarding `Cc1cnc(NS(=O)(=O)c2cccc(Cl)c2Cl)c(OCc2cc(C)on2)n1` [Example 21, 2,3-Dichloro-N-[5-methyl-3-(5-methyl-3-isoxazolylmethoxy)-2-pyrazinyl]benzenesulphonamide], the melting point was in the range of 155 to 156 °C.

In turn, `COc1nc(C(C)(C)O)cnc1NS(=O)(=O)c1cccc(Cl)c1Cl` [Example 114, 2,3-Dichloro-N-[5-(1-hydroxy-1-methylethyl)-3-methoxy-2-pyrazinyl]benzenesulphonamide] yielded a melting point of 192 to 193 °C. The same measure for `COCCNc1nc(OC)c(NS(=O)(=O)c2cccc(Cl)c2Cl)nc1Cl` [Example 75, 2,3-Dichloro-N-{6-chloro-3-methoxy-5-([2-methoxyethyl)amino]-2-pyrazinyl}benzenesulphonamide]: 177 to 178 °C; for `CN(C)Cc1ccc(COc2nc(Cl)cnc2NS(=O)(=O)c2cccc(Cl)c2Cl)o1` [Example 182, 2,3-Dichloro-N-[5-chloro-3-(5-dimethylaninomethyl-2-furanylmethoxy)-2-pyrazinyl]benzenesulphonamide]: 209 to 210 °C.

In turn, `O=S(=O)(Nc1nc(Cl)cnc1Br)c1cccc(Cl)c1Cl` [Example 98] returned a melting point of 123 to 124 °C. Molecule `COc1nc(SCC(=O)O)cnc1NS(=O)(=O)c1cccc(Cl)c1Cl` [Example 83, [5-(2,3-Dichlorobenzenesulphonylamino)-6-methoxy-2-pyrazinylsulphanyl]acetic acid] displayed a melting point of 138 to 140 °C. As to `Cc1cnc(NS(=O)(=O)c2cccc(Cl)c2Cl)c(OCc2ncccc2C)n1` [Example 26, 2,3-Dichloro-N-[5-methyl-3-(3-methyl-2-pyridinylmethoxy)-2-pyrazinyl]benzenesulphonamide], the melting point is 137 to 138 °C.

In turn, `COc1nc(CO)c(C)nc1NS(=O)(=O)c1cccc(Cl)c1Cl` [Example 120, 2,3-Dichloro-N-[5-(hydroxymethyl)-3-methoxy-6-methyl-2-pyrazinyl)benzenesulphonamide] registered a melting point of 175 to 177 °C.

As to `COC(=O)CCSc1cnc(NS(=O)(=O)c2cccc(Cl)c2Cl)c(OC)n1` [Example 117], the melting point is 146 to 148 °C. `Cc1cnc(NS(=O)(=O)c2cccc(Cl)c2Cl)c(OCc2cccnn2)n1` [Example 27, 2,3-Dichloro-N-[5-methyl-3-(3-pyridazinylmethoxy)-2-pyrazinyl]benzenesulphonamide] had a melting point of 119 to 124 °C. The molecule `Cc1cccc(COc2nc(C)cnc2NS(=O)(=O)c2cccc(Cl)c2Cl)n1` [Example 23, 2,3-Dichloro-N-[5-methyl-3-(6-methyl-2-pyridinylmethoxy)-2-pyrazinyl]benzenesulphonamide] had a melting point of 164 to 165 °C.

`COc1nc(-n2cncn2)cnc1NS(=O)(=O)c1cccc(Cl)c1Cl` [Example 167, 2,3-Dichloro-N-[3-methoxy-5-([1,2,4]-1-triazolyl)-2-pyrazinyl]benzenesulphonamide]: the melting point lay within 248 to 249 °C. For the molecule `COc1nc(C)cnc1NS(=O)(=O)c1ccc(Cl)c(Cl)c1` [Example 48, 3,4-Dichloro-N-(3-methoxy-5-methyl-2-pyrazinyl)benezenesulphonamide], the melting point fell in the range of 148 to 149 °C. As for `COC(=O)c1cnc(OC)c(NS(=O)(=O)c2cccc(Cl)c2Cl)n1` [Example 201, 6-(2,3-Dichlorophenylsulphonylamino)-5-methoxy-2-pyrazinecarboxylic acid, methyl ester], the figure is 90 to 92 °C.

The record behind these values is patent US7662825B2, “N-pyrazinyl-phenylsulphonamides and their use in the treatment of chemokine mediated diseases” (AstraZeneca AB, priority 2002, dated 2010).
